# Data as given in patent publication US9642373B2, “Insecticidal compositions and methods of using same” (Woodstream Corporation, priority 2004, dated 2017).
# Tested on: insects
# Experiment: Previous experiments, treatment of insects with 1% SLS alone (data not shown)
# Type: in vivo
# Settings: 300 second time period used in testing
compound,measurement,value
"CCCCCCCCCCCCOS(=O)(=O)[O-].[Na+] [1% SLS, sodium lauryl sulfate]",Kill time,> 300 s
